Several values for one entry are separate records, joined by “and”; a condition that tells them apart may be missing. Equal values may be shown once. Inconclusive results are not listed. Activity calls are given as the source filed them.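 The calls were made as follows: active = fitted curve drops past -35% activity change at a concentration up to twice the top valid dose tested; inconclusive = no clear call, values can overlap the other calls; inactive = activity opposite to the expected decrease, or the rest.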

The text below walks through data of PubChem BioAssay AID624365 (Broad Institute, 2012).

Experiment [1] deals with HepG2 viability, CellTiter-Glo luminescence, 48 h. The experiment can be described thus: HepG2 cell viability loss, dose response, cytotoxicity control for LMP1 inhibitor project, CellTiter-Glo luminescence, dry powder (AID 624365).
Test in experiment [2]: as above
The settings on record: HepG2 viability, CellTiter-Glo luminescence, 48 h. A general note: ATP-based viability assays read luminescence as a measure of living cells.

As to `CC(C)=CCN(C(=O)C#Cc1ccccc1)[C@H](CO)c1ccccc1`, the AC35 in experiment [1] was 20.3 µM.

On to `O=C(CCc1ccccc1)NC(c1cccs1)c1cc(Cl)c2cccnc2c1O` (centres undefined), for which, in experiment [2] (at 19.5 µM (top of the series)), the activity change, negative = cytotoxicity is 1.94% (inactive).

Consider `C[C@H](CO)N1C[C@H](C)[C@@H](CN(C)Cc2ccc(-c3ccccc3)cc2)Oc2ccc(NC(=O)Nc3cccc4ccccc34)cc2CC1=O`, for which the AC35 in experiment [1] is 37 µM.

With `Cc1cc(NC(=O)c2ccc3c(c2)OCCO3)no1`, in experiment [2] (at 19.5 µM (top of the series)), the activity change, negative = cytotoxicity was 14.9% (inactive).

Consider `C=C1C[C@]23C[C@@]1(O)CC[C@H]2[C@@]12C=C[C@H](O)[C@@](C)(C(=O)O1)[C@H]2[C@@H]3C(=O)O`, for which the activity change, negative = cytotoxicity in experiment [2] (at 12 µM (top of the series)) is 9.94% (inactive).

On to `C[C@H]1CCCCO[C@@H](CN(C)CC2CCCCC2)[C@@H](C)CN([C@@H](C)CO)C(=O)c2cc(NC(=O)C3CCCCC3)ccc2O1`, for which, in experiment [1], the AC35 is 21.4 µM.

Regarding `Cc1ccnc(NC(=O)c2ccc(C(=O)c3ccccc3)cc2)c1`, the activity change, negative = cytotoxicity in experiment [2] (at 19.5 µM (top of the series)) was -6.85% (inactive).

Consider `CCn1c2ccccc2c2cc(/C=N/n3cnnc3)ccc21`, for which the AC35 in experiment [1] was 22.1 µM.

For `C[C@H](CO)N1C[C@H](C)[C@@H](CN(C)CC2CCCCC2)OCCCC[C@H](C)Oc2ccc(NC(=O)Nc3cccc4ccccc34)cc2C1=O`, the activity change, negative = cytotoxicity in experiment [2] (at 19.5 µM (top of the series)) is -6.9% (inactive).

Turning to `COCCCNC(=O)C(C)Sc1nnc2c3cc(C)ccc3n(Cc3ccccc3F)c2n1` (centres undefined), the activity change, negative = cytotoxicity in experiment [2] (at 19.5 µM (top of the series)) is -14.5% (inactive).

As to `CSc1nc(-c2ccc(C)cc2)nc(C(Cl)Cl)n1`, the AC35 in experiment [1] was 36 µM.

`CCN1CCN(C(c2cccnc2)c2cc(Cl)c3cccnc3c2O)CC1` (centres undefined): the activity change, negative = cytotoxicity in experiment [2] (at 19.5 µM (top of the series)) is -19.9% (inactive).

Take `Oc1cccc(C(Nc2nccs2)c2ccc3cccnc3c2O)c1` (centres undefined): the activity change, negative = cytotoxicity in experiment [2] (at 19.5 µM (top of the series)) was 3.87% (inactive).

On to `O=c1[nH]c(=O)n([C@H]2C[C@H](O)[C@@H](CO)O2)cc1C(F)(F)F`, for which the AC35 in experiment [1] is 14.3 µM.

Take `C[C@@H]1CN([C@@H](C)CO)C(=O)c2cc(NC(=O)Nc3ccc4c(c3)OCO4)ccc2O[C@H]1CN(C)CC1CCCCC1`: the AC35 in experiment [1] was 28.9 µM.

`C[C@H](CO)N1C[C@H](C)[C@@H](CN(C)CC2CC2)OCCCC[C@H](C)Oc2ccc(NC(=O)Nc3cccc4ccccc34)cc2C1=O`: the AC35 in experiment [1] was 79.9 µM.

As for `COc1ccc(-c2csc3ncnc(NCCN4CCOCC4)c23)cc1`, the activity change, negative = cytotoxicity in experiment [2] (at 19.5 µM (top of the series)) is -1.72% (inactive).

In the case of `Nc1ccn([C@@H]2O[C@H](CO)[C@@H](O)C2O)c(=O)n1` (some centres undefined), in experiment [1], the AC35 is 7.36 µM.

For the compound `CC(=O)Nc1nc(C)c(-c2csc(Nc3ccc(O)cc3)n2)s1`, the AC35 in experiment [1] is 19.6 µM.

As to `C[C@@H]1CN([C@@H](C)CO)C(=O)c2cccc(NC(=O)Nc3cccc4ccccc34)c2O[C@H]1CN(C)C(=O)Nc1ccc(C(F)(F)F)cc1`, in experiment [2] (at 19.5 µM (top of the series)), the activity change, negative = cytotoxicity was -1.58% (inactive).

Regarding `O=C(CSc1nnc2c3ccccc3n(Cc3ccccc3)c2n1)NCc1ccco1`, the AC35 in experiment [1] is 19.5 µM.

With `CC1CN(C(=O)CSc2nnc3c4ccccc4n(Cc4cccc(Cl)c4)c3n2)CCN1C(=O)c1ccccc1F` (centres undefined), the activity change, negative = cytotoxicity in experiment [2] (at 19.5 µM (top of the series)) is -2.74% (inactive).

Turning to `CCCSc1nnc2c3ccccc3n(Cc3ccccc3)c2n1`, in experiment [2] (at 19.5 µM (top of the series)), the activity change, negative = cytotoxicity was -1.67% (inactive).

With `COc1ccc2[nH]c(C(=O)N/N=C/c3ccc(O)cc3O)cc2c1`, the AC35 in experiment [1] is 46.4 µM.

As for `C[C@@H]1CN([C@@H](C)CO)C(=O)c2cc(NC(=O)Nc3ccc(C(F)(F)F)cc3)ccc2O[C@@H](C)CCCCO[C@H]1CN(C)Cc1ccc(C(F)(F)F)cc1`, the activity change, negative = cytotoxicity in experiment [2] (at 19.5 µM (top of the series)) is -1.82% (inactive).

With `CNC[C@@H]1Oc2ccc(NS(=O)(=O)c3cn(C)cn3)cc2CC(=O)N([C@H](C)CO)C[C@@H]1C`, the activity change, negative = cytotoxicity in experiment [2] (at 21 µM (top of the series)) is -1.51% (inactive).

`COc1ccc(-c2cc3nc4n(c(=O)c3s2)CCC4)cc1`: the activity change, negative = cytotoxicity in experiment [2] (at 19.5 µM (top of the series)) was -14.3% (inactive).

As for `O=c1[nH]c(Nc2nc3ccccc3o2)nc2c1CCCC2`, in experiment [2] (at 19.5 µM (top of the series)), the activity change, negative = cytotoxicity is -6.44% (inactive).

In the case of `Fc1ccc2c(c1)c1nnc(SCCN3CCOCC3)nc1n2Cc1ccccc1`, the AC35 in experiment [1] was 33.7 µM.

In the case of `CCc1ccc(/C=C/C(=O)C2C(=O)c3ccccc3C2=O)cc1`, the activity change, negative = cytotoxicity in experiment [2] (at 19.5 µM (top of the series)) is -7.16% (inactive).

Turning to `C[C@@H]1CCCCO[C@H](CN(C)C(=O)c2ccccc2)[C@H](C)CN([C@@H](C)CO)C(=O)c2cc(NC(=O)Nc3ccc(F)cc3)ccc2O1`, the activity change, negative = cytotoxicity in experiment [2] (at 19.5 µM (top of the series)) is -6.27% (inactive).

Take `CCc1sc(C(=O)Nc2ncccc2O)cc1C`: the activity change, negative = cytotoxicity in experiment [2] (at 19.5 µM (top of the series)) is -0.832% (inactive).

Turning to `CC12CCC3C(CC=C4CC(O)CCC43CO)C1CCC2OC(=O)c1ccccc1` (centres undefined), the activity change, negative = cytotoxicity in experiment [2] (at 19.5 µM (top of the series)) was 0.538% (inactive).

Turning to `C=CCN1Cc2ccccc2[C@@H]2OC(c3ccc(OCCCO)cc3)=N[C@]2(CCC(=O)OC(C)(C)C)C1=O`, in experiment [2] (at 19.5 µM (top of the series)), the activity change, negative = cytotoxicity is 4.76% (inactive).

`COc1ccc(NC(=O)c2ccc(OC(C)C(=O)O)cc2)cc1Cl` (centres undefined): in experiment [2] (at 21 µM (top of the series)), the activity change, negative = cytotoxicity was -17.9% (inactive).

Turning to `C[C@H](CO)N1C[C@H](C)[C@H](CN(C)C(=O)Nc2ccc(C(F)(F)F)cc2)OCCCC[C@H](C)Oc2ccc(NC(=O)Nc3ccc(F)cc3)cc2C1=O`, the AC35 in experiment [1] was 55.6 µM.

On to `C[C@@H]1CN([C@@H](C)CO)C(=O)c2cc(NC(=O)Nc3ccc(C(F)(F)F)cc3)ccc2O[C@@H](C)CCCCO[C@@H]1CN(C)CC1CCCCC1`, for which the AC35 in experiment [1] is 40.7 µM.

Take `C/C=C/C/C=C/CCC(=O)[C@H]1O[C@H]1C(N)=O`: the AC35 in experiment [1] is 14 µM and 60.1 µM.

As for `C/C(=N\NC(=S)N1CCN(c2ccccn2)CC1)c1ccccn1`, the activity change, negative = cytotoxicity in experiment [2] (at 10 µM (top of the series)) is -18.8% (inactive).

On to `Cc1ccc(S(=O)(=O)NC(CC(C)C)C(=O)NCC(c2ccco2)N2CCCCC2)cc1` (centres undefined), for which the activity change, negative = cytotoxicity in experiment [2] (at 19.5 µM (top of the series)) was 14.4% (inactive).

Take `C/C(=N\NC(=S)N1CCCCC1)c1cccc(C)n1`: in experiment [1], the AC35 is 2.55 µM.

As for `C[C@@H]1CCCCO[C@H](CN(C)C(=O)CCC(F)(F)F)[C@H](C)CN([C@@H](C)CO)C(=O)c2cc(NC(=O)CCC(F)(F)F)ccc2O1`, the activity change, negative = cytotoxicity in experiment [2] (at 19.5 µM (top of the series)) is 6.76% (inactive).

Regarding `O=C(Nc1cc(C(F)(F)F)cc(C(F)(F)F)c1)Nc1cnn(-c2ccc([N+](=O)[O-])cc2)c1C(F)(F)F`, the activity change, negative = cytotoxicity in experiment [2] (at 19.5 µM (top of the series)) was 11.8% (inactive).

Take `CCc1ccc(/C=C2\SC(=S)N(CCCC(=O)Nc3ccccn3)C2=O)cc1`: in experiment [2] (at 19.5 µM (top of the series)), the activity change, negative = cytotoxicity is -1.2% (inactive).

Turning to `C/C(=N\NC(=S)N1CC2CCC(CC2)C1)c1cccc(C)n1`, the activity change, negative = cytotoxicity in experiment [2] (at 19.5 µM (top of the series)) was -9.43% (inactive).

For `C[C@@H]1CCCCO[C@H](CN(C)CC2CCCCC2)[C@H](C)CN([C@@H](C)CO)C(=O)c2cc(NC(=O)NC3CCCCC3)ccc2O1`, the activity change, negative = cytotoxicity in experiment [2] (at 19.5 µM (top of the series)) was -0.214% (inactive).

`Cc1c(NC(=O)c2cccc(NC(=O)COc3ccccc3C#N)c2)c(=O)n(-c2ccccc2)n1C`: the activity change, negative = cytotoxicity in experiment [2] (at 19.5 µM (top of the series)) was 0.795% (inactive).

Turning to `Cc1ccc(NC(=O)C2CCN(S(=O)(=O)c3ccc4c(c3)NC(=O)C(C)S4)CC2)cc1Cl` (centres undefined), the activity change, negative = cytotoxicity in experiment [2] (at 19.5 µM (top of the series)) was -15.1% (inactive).

In the case of `C/C(=N\NC(=S)Nc1cccc(Cl)c1)c1ccccn1`, the AC35 in experiment [1] is 13.2 µM.

Turning to `COc1ccc2nc(Nc3nc(C)c(CCC(C)C)c(=O)[nH]3)nc(C)c2c1`, the AC35 in experiment [1] is 3.44 µM.

For `C[C@@H]1CCCCO[C@@H](CN(C)Cc2ccccc2)[C@H](C)CN([C@H](C)CO)C(=O)c2cc(NC(=O)Nc3ccc4c(c3)OCO4)ccc2O1`, the activity change, negative = cytotoxicity in experiment [2] (at 19.5 µM (top of the series)) is -6.99% (inactive).

As to `COc1cccc(/C=N/Nc2ncnc3c2ncn3Cc2ccccc2)c1O`, in experiment [1], the AC35 is 26.4 µM.

Take `O=C1/C(=C/c2ccncc2)SC(=S)N1Cc1ccccc1`: in experiment [2] (at 19.5 µM (top of the series)), the activity change, negative = cytotoxicity was -5.23% (inactive).

For the compound `COc1ccc(C(=O)Nc2ccc3[nH]ccc3c2)cc1`, the activity change, negative = cytotoxicity in experiment [2] (at 19.5 µM (top of the series)) is 1.7% (inactive).

Regarding `CSC(=S)N/N=C(\C)c1cccc(C)n1`, the activity change, negative = cytotoxicity in experiment [2] (at 19.5 µM (top of the series)) was 1.36% (inactive).

With `C[C@@H]1CCCCO[C@H](CN(C)S(=O)(=O)c2ccccc2)[C@@H](C)CN([C@@H](C)CO)C(=O)c2cc(N(C)C)ccc2O1`, the activity change, negative = cytotoxicity in experiment [2] (at 19.5 µM (top of the series)) is -0.756% (inactive).

Consider `CC1=C(C(=O)OCc2ccc3c(c2)OCO3)C(c2ccc(F)cc2)NC(=O)N1` (centres undefined), for which the activity change, negative = cytotoxicity in experiment [2] (at 19.5 µM (top of the series)) is 2.83% (inactive).

As for `C/C(=N\NC(=S)Nc1ccccc1)c1ccccn1`, the activity change, negative = cytotoxicity in experiment [2] (at 10 µM (top of the series)) is -2.52% (inactive).

As to `c1ccc(-c2cn3c4c(sc3n2)CCCC4)cc1`, in experiment [2] (at 19.5 µM (top of the series)), the activity change, negative = cytotoxicity is -13.4% (inactive).

For `C/C(=N\NC(=S)Nc1ccccc1Cl)c1ccccn1`, the AC35 in experiment [1] was 9.26 µM.

`C/C(=N\NC(=S)Nc1ccc(C)cc1)c1ccccn1`: the AC35 in experiment [1] is 11.9 µM.

As for `C=C1C[C@]23C[C@@]1(O)CC[C@@H]2c1cccc(C)c1[C@@H]3C(=O)O`, the activity change, negative = cytotoxicity in experiment [2] (at 19.5 µM (top of the series)) is -23.5% (inactive).

Regarding `Cc1ccc(S(=O)(=O)Nc2ccc3c(c2)C(=O)N([C@@H](C)CO)C[C@H](C)[C@@H](CN(C)C(=O)CCC(F)(F)F)OCCCC[C@H](C)O3)cc1`, in experiment [2] (at 19.5 µM (top of the series)), the activity change, negative = cytotoxicity was 1.23% (inactive).

As for `C[C@@H]1CCCCO[C@H](CN(C)C(=O)NC2CCCCC2)[C@H](C)CN([C@@H](C)CO)C(=O)c2cc(NC(=O)C3CCCCC3)ccc2O1`, the activity change, negative = cytotoxicity in experiment [2] (at 19.5 µM (top of the series)) was 11% (inactive).
